# Assay results published in US20230111310A1, “CARBOXYLIC ACID DERIVATIVE-SUBSTITUTED IMINO ARYL COMPOUND, PREPARATION METHOD THEREFOR, HERBICIDAL COMPOSITION AND USE THEREOF” (Qingdao Kingagroot Chemical Compound Co., Ltd., priority 2020, published 2023).
# Test system: Digitaria sanguinalis
# Experiment: Weeding effect in post-emergence stage
# Assay type: in vivo
# Settings: Dose 15 g/ha; fresh weight control rate level
# How it was run: (§1)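 Post-emergence spray tower; 2-3 leaf plants (2 wk after sowing, soil pots, greenhouse). Formulation: acetone, Tween 80, methyl oleate EC 1.5 liter/ha as synergist, water. Rates 500–7.5 g/ha. Growth control rate read at 3 wk; n=3, averaged.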
row,SMILES,"Weeding effect in post-emergence stage, Digitaria sanguinalis (level)"
1,CCSC(=O)[C@@H](C)O/N=C/c1cc(-n2c(=O)cc(C(F)(F)F)n(C)c2=O)c(F)cc1Cl [398(R)],5 (Level 5: growth control rate is above 85%)
2,COC(=O)[C@@H](C)O/N=C/c1cc(-n2c(=O)c(Cl)c(C(F)(F)F)n(C)c2=O)c(F)cc1Cl [431(R)],5 (Level 5: growth control rate is above 85%)
3,COC(=O)[C@@H](C)O/N=C/c1cc(N2C(=O)CC(N)(C(F)(F)F)N(C)C2=O)c(F)cc1Cl (stereo partly drawn) [432(R)],5 (Level 5: growth control rate is above 85%)

# Test system: Abutilon theophrasti
# Experiment: Weeding effect in post-emergence stage
# Assay type: in vivo
# Settings: Dose 15 g/ha; fresh weight control rate level
# How it was run: as §1
row,SMILES,"Weeding effect in post-emergence stage, Abutilon theophrasti (level)"
1,CCSC(=O)[C@@H](C)O/N=C/c1cc(-n2c(=O)cc(C(F)(F)F)n(C)c2=O)c(F)cc1Cl [398(R)],5 (Level 5: growth control rate is above 85%)
2,COC(=O)[C@@H](C)O/N=C/c1cc(-n2c(=O)c(Cl)c(C(F)(F)F)n(C)c2=O)c(F)cc1Cl [431(R)],5 (Level 5: growth control rate is above 85%)
3,COC(=O)[C@@H](C)O/N=C/c1cc(N2C(=O)CC(N)(C(F)(F)F)N(C)C2=O)c(F)cc1Cl (stereo partly drawn) [432(R)],5 (Level 5: growth control rate is above 85%)

# Test system: Eleusine indica
# Experiment: Weeding effect in post-emergence stage
# Assay type: in vivo
# Settings: Dose 15 g/ha; fresh weight control rate level
# How it was run: as §1
row,SMILES,"Weeding effect in post-emergence stage, Eleusine indica (level)"
1,CCSC(=O)[C@@H](C)O/N=C/c1cc(-n2c(=O)cc(C(F)(F)F)n(C)c2=O)c(F)cc1Cl [398(R)],5 (Level 5: growth control rate is above 85%)
2,COC(=O)[C@@H](C)O/N=C/c1cc(-n2c(=O)c(Cl)c(C(F)(F)F)n(C)c2=O)c(F)cc1Cl [431(R)],5 (Level 5: growth control rate is above 85%)
3,COC(=O)[C@@H](C)O/N=C/c1cc(N2C(=O)CC(N)(C(F)(F)F)N(C)C2=O)c(F)cc1Cl (stereo partly drawn) [432(R)],5 (Level 5: growth control rate is above 85%)

# Test system: Setaria viridis
# Experiment: Weeding effect in post-emergence stage
# Assay type: in vivo
# Settings: Dose 15 g/ha; fresh weight control rate level
# How it was run: as §1
row,SMILES,"Weeding effect in post-emergence stage, Setaria viridis (level)"
1,CCSC(=O)[C@@H](C)O/N=C/c1cc(-n2c(=O)cc(C(F)(F)F)n(C)c2=O)c(F)cc1Cl [398(R)],5 (Level 5: growth control rate is above 85%)
2,COC(=O)[C@@H](C)O/N=C/c1cc(-n2c(=O)c(Cl)c(C(F)(F)F)n(C)c2=O)c(F)cc1Cl [431(R)],5 (Level 5: growth control rate is above 85%)
3,COC(=O)[C@@H](C)O/N=C/c1cc(N2C(=O)CC(N)(C(F)(F)F)N(C)C2=O)c(F)cc1Cl (stereo partly drawn) [432(R)],5 (Level 5: growth control rate is above 85%)

# Test system: Alopecurus japonicus
# Experiment: Weeding effect in post-emergence stage
# Assay type: in vivo
# Settings: Dose 15 g/ha; fresh weight control rate level
# How it was run: as §1
row,SMILES,"Weeding effect in post-emergence stage, Alopecurus japonicus (level)"
1,CCSC(=O)[C@@H](C)O/N=C/c1cc(-n2c(=O)cc(C(F)(F)F)n(C)c2=O)c(F)cc1Cl [398(R)],5 (Level 5: growth control rate is above 85%)
2,COC(=O)[C@@H](C)O/N=C/c1cc(-n2c(=O)c(Cl)c(C(F)(F)F)n(C)c2=O)c(F)cc1Cl [431(R)],5 (Level 5: growth control rate is above 85%)
3,COC(=O)[C@@H](C)O/N=C/c1cc(N2C(=O)CC(N)(C(F)(F)F)N(C)C2=O)c(F)cc1Cl (stereo partly drawn) [432(R)],5 (Level 5: growth control rate is above 85%)

# Test system: cotton
# Experiment: Pre-emergence stage, crop selectivity
# Assay type: in vivo
# Settings: 30 g/ha, 4 weeks
# How it was run: (§2)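 Pots were kept in the greenhouse for 4 weeks and then rated for growth control on activity-level criteria. Spraying took place immediately after sowing at application rates of 500 to 7.5 g/ha, using an acetone/tween 80 formulation diluted with water, on seeds under 0.5-2 cm of soil.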
row,SMILES,plant damage level Cotton
1,CCSC(=O)[C@@H](C)O/N=C/c1cc(-n2c(=O)cc(C(F)(F)F)n(C)c2=O)c(F)cc1Cl [398(R)],0 (Level 0: growth control rate is less than 5%)
2,COC(=O)[C@@H](C)O/N=C/c1cc(-n2c(=O)c(Cl)c(C(F)(F)F)n(C)c2=O)c(F)cc1Cl [431(R)],0 (Level 0: growth control rate is less than 5%)
3,COC(=O)[C@@H](C)O/N=C/c1cc(N2C(=O)CC(N)(C(F)(F)F)N(C)C2=O)c(F)cc1Cl (stereo partly drawn) [432(R)],0 (Level 0: growth control rate is less than 5%)

# Test system: Soybeans
# Experiment: Pre-emergence stage, crop selectivity
# Assay type: in vivo
# Settings: 30 g/ha, 4 weeks
# How it was run: as §2
row,SMILES,plant damage level Soybeans
1,CCSC(=O)[C@@H](C)O/N=C/c1cc(-n2c(=O)cc(C(F)(F)F)n(C)c2=O)c(F)cc1Cl [398(R)],0 (Level 0: growth control rate is less than 5%)
2,COC(=O)[C@@H](C)O/N=C/c1cc(-n2c(=O)c(Cl)c(C(F)(F)F)n(C)c2=O)c(F)cc1Cl [431(R)],0 (Level 0: growth control rate is less than 5%)
3,COC(=O)[C@@H](C)O/N=C/c1cc(N2C(=O)CC(N)(C(F)(F)F)N(C)C2=O)c(F)cc1Cl (stereo partly drawn) [432(R)],0 (Level 0: growth control rate is less than 5%)

# Test system: corn
# Experiment: Pre-emergence stage, crop selectivity
# Assay type: in vivo
# Settings: 30 g/ha, 4 weeks
# How it was run: as §2
row,SMILES,plant damage level Corn
1,CCSC(=O)[C@@H](C)O/N=C/c1cc(-n2c(=O)cc(C(F)(F)F)n(C)c2=O)c(F)cc1Cl [398(R)],0 (Level 0: growth control rate is less than 5%)
2,COC(=O)[C@@H](C)O/N=C/c1cc(-n2c(=O)c(Cl)c(C(F)(F)F)n(C)c2=O)c(F)cc1Cl [431(R)],0 (Level 0: growth control rate is less than 5%)
3,COC(=O)[C@@H](C)O/N=C/c1cc(N2C(=O)CC(N)(C(F)(F)F)N(C)C2=O)c(F)cc1Cl (stereo partly drawn) [432(R)],0 (Level 0: growth control rate is less than 5%)

# Test system: Peanut
# Experiment: Pre-emergence stage, crop selectivity
# Assay type: in vivo
# Settings: 30 g/ha, 4 weeks
# How it was run: as §2
row,SMILES,plant damage level Peanut
1,CCSC(=O)[C@@H](C)O/N=C/c1cc(-n2c(=O)cc(C(F)(F)F)n(C)c2=O)c(F)cc1Cl [398(R)],0 (Level 0: growth control rate is less than 5%)
2,COC(=O)[C@@H](C)O/N=C/c1cc(-n2c(=O)c(Cl)c(C(F)(F)F)n(C)c2=O)c(F)cc1Cl [431(R)],0 (Level 0: growth control rate is less than 5%)
3,COC(=O)[C@@H](C)O/N=C/c1cc(N2C(=O)CC(N)(C(F)(F)F)N(C)C2=O)c(F)cc1Cl (stereo partly drawn) [432(R)],0 (Level 0: growth control rate is less than 5%)

# Test system: Echinochloa crusgalli
# Experiment: Weeding effect in post-emergence stage
# Assay type: in vivo
# Settings: Dose 15 g/ha; fresh weight control rate level
# How it was run: as §1
row,SMILES,"Weeding effect in post-emergence stage, Echinochloa crusgalli (level)"
1,CCSC(=O)[C@@H](C)O/N=C/c1cc(-n2c(=O)cc(C(F)(F)F)n(C)c2=O)c(F)cc1Cl [398(R)],5 (Level 5: growth control rate is above 85%)
2,COC(=O)[C@@H](C)O/N=C/c1cc(-n2c(=O)c(Cl)c(C(F)(F)F)n(C)c2=O)c(F)cc1Cl [431(R)],5 (Level 5: growth control rate is above 85%)
3,COC(=O)[C@@H](C)O/N=C/c1cc(N2C(=O)CC(N)(C(F)(F)F)N(C)C2=O)c(F)cc1Cl (stereo partly drawn) [432(R)],5 (Level 5: growth control rate is above 85%)

# Test system: Amaranthus retroflexus
# Experiment: Weeding effect in pre-emergence stage
# Assay type: in vivo
# Settings: 30 g/ha, 4 weeks
# How it was run: as §2
row,SMILES,activity level (growth control rate) Amaranthus retroflexus
1,CCSC(=O)[C@@H](C)O/N=C/c1cc(-n2c(=O)cc(C(F)(F)F)n(C)c2=O)c(F)cc1Cl [398(R)],5 (Level 5: growth control rate is above 85%)
2,COC(=O)[C@@H](C)O/N=C/c1cc(-n2c(=O)c(Cl)c(C(F)(F)F)n(C)c2=O)c(F)cc1Cl [431(R)],5 (Level 5: growth control rate is above 85%)
3,COC(=O)[C@@H](C)O/N=C/c1cc(N2C(=O)CC(N)(C(F)(F)F)N(C)C2=O)c(F)cc1Cl (stereo partly drawn) [432(R)],5 (Level 5: growth control rate is above 85%)

# Test system: Capsella bursa-pastoris
# Experiment: Weeding effect in pre-emergence stage
# Assay type: in vivo
# Settings: 30 g/ha, 4 weeks
# How it was run: as §2
row,SMILES,activity level (growth control rate) Capsella bursa-pastoris
1,CCSC(=O)[C@@H](C)O/N=C/c1cc(-n2c(=O)cc(C(F)(F)F)n(C)c2=O)c(F)cc1Cl [398(R)],5 (Level 5: growth control rate is above 85%)
2,COC(=O)[C@@H](C)O/N=C/c1cc(-n2c(=O)c(Cl)c(C(F)(F)F)n(C)c2=O)c(F)cc1Cl [431(R)],5 (Level 5: growth control rate is above 85%)
3,COC(=O)[C@@H](C)O/N=C/c1cc(N2C(=O)CC(N)(C(F)(F)F)N(C)C2=O)c(F)cc1Cl (stereo partly drawn) [432(R)],5 (Level 5: growth control rate is above 85%)

# Test system: Descurainia sophia
# Experiment: Weeding effect in pre-emergence stage
# Assay type: in vivo
# Settings: 30 g/ha, 4 weeks
# How it was run: as §2
row,SMILES,activity level (growth control rate) Descurainia sophia
1,CCSC(=O)[C@@H](C)O/N=C/c1cc(-n2c(=O)cc(C(F)(F)F)n(C)c2=O)c(F)cc1Cl [398(R)],5 (Level 5: growth control rate is above 85%)
2,COC(=O)[C@@H](C)O/N=C/c1cc(-n2c(=O)c(Cl)c(C(F)(F)F)n(C)c2=O)c(F)cc1Cl [431(R)],5 (Level 5: growth control rate is above 85%)
3,COC(=O)[C@@H](C)O/N=C/c1cc(N2C(=O)CC(N)(C(F)(F)F)N(C)C2=O)c(F)cc1Cl (stereo partly drawn) [432(R)],5 (Level 5: growth control rate is above 85%)

# Test system: Veronica didyma Tenore
# Experiment: Weeding effect in pre-emergence stage
# Assay type: in vivo
# Settings: 30 g/ha, 4 weeks
# How it was run: as §2
row,SMILES,activity level (growth control rate) Veronica didyma Tenore
1,CCSC(=O)[C@@H](C)O/N=C/c1cc(-n2c(=O)cc(C(F)(F)F)n(C)c2=O)c(F)cc1Cl [398(R)],5 (Level 5: growth control rate is above 85%)
2,COC(=O)[C@@H](C)O/N=C/c1cc(-n2c(=O)c(Cl)c(C(F)(F)F)n(C)c2=O)c(F)cc1Cl [431(R)],5 (Level 5: growth control rate is above 85%)
3,COC(=O)[C@@H](C)O/N=C/c1cc(N2C(=O)CC(N)(C(F)(F)F)N(C)C2=O)c(F)cc1Cl (stereo partly drawn) [432(R)],5 (Level 5: growth control rate is above 85%)

# Test system: Abutilon theophrasti
# Experiment: Weeding effect in pre-emergence stage
# Assay type: in vivo
# Settings: 30 g/ha, 4 weeks
# How it was run: as §2
row,SMILES,activity level (growth control rate) Abutilon theophrasti
1,CCSC(=O)[C@@H](C)O/N=C/c1cc(-n2c(=O)cc(C(F)(F)F)n(C)c2=O)c(F)cc1Cl [398(R)],5 (Level 5: growth control rate is above 85%)
2,COC(=O)[C@@H](C)O/N=C/c1cc(-n2c(=O)c(Cl)c(C(F)(F)F)n(C)c2=O)c(F)cc1Cl [431(R)],5 (Level 5: growth control rate is above 85%)
3,COC(=O)[C@@H](C)O/N=C/c1cc(N2C(=O)CC(N)(C(F)(F)F)N(C)C2=O)c(F)cc1Cl (stereo partly drawn) [432(R)],5 (Level 5: growth control rate is above 85%)

# Test system: Setaria viridis
# Experiment: Weeding effect in pre-emergence stage
# Assay type: in vivo
# Settings: 30 g/ha, 4 weeks
# How it was run: as §2
row,SMILES,activity level (growth control rate) Setaria viridis
1,CCSC(=O)[C@@H](C)O/N=C/c1cc(-n2c(=O)cc(C(F)(F)F)n(C)c2=O)c(F)cc1Cl [398(R)],5 (Level 5: growth control rate is above 85%)
2,COC(=O)[C@@H](C)O/N=C/c1cc(-n2c(=O)c(Cl)c(C(F)(F)F)n(C)c2=O)c(F)cc1Cl [431(R)],5 (Level 5: growth control rate is above 85%)
3,COC(=O)[C@@H](C)O/N=C/c1cc(N2C(=O)CC(N)(C(F)(F)F)N(C)C2=O)c(F)cc1Cl (stereo partly drawn) [432(R)],5 (Level 5: growth control rate is above 85%)
